In patent EP0326134A1, “4-Amino-2,3-disubstituted-6,7-dihydro-5H-1-pyridine derivatives, process for their preparation and medicaments containing them” (NAUCHNO-ISSLEDOVATELSKY INSTITUT TEKHNOLOGII I BEZOPASNOSTI …, priority 1988, dated 1989):

Assays:
[1] = system: Nerven-Muskel-Präparat von Mäusen (n.peroneus-m.extensor digitorum longus); test: Neuromuscular transmission in isolated nerve-muscle preparation (EPP, minEPP); details: for Stimulierung der Nerven-Muskelübertragung, in % der Amplitude: EPP: EPP = Endplattenpotential
From the text: Der Einfluß der Stoffe auf die Nerven-Muskei-Übertragung wurde am isolierten Nerven-Muskel-Präparat von Mäusen (n.peroneus-m.extensor digitorum longus) (s. Bhattacharyya B. et al. "Neuromuscular blocking action of two hemicholinium-3 analogs" Europ. J. Pharmac. 146, 155-165 /1988/) untersucht, das von Lilly-Lösung perfundiert wurde, durch die man ein Gemisch von 02 und C02 leitete. […] Das Endplattenpotential (EPP) und das Endplattenminiaturpotential (minEPP) wurden mit Hilfe eines Magnetografen aufgezeichnet und danach mit dem Computer ausgewertet. Ermittelt wurden die Frequenz (f), die Amplitude (A) und die Dauer (t) der minEPP und der EPP (s. Tabelle 2).

Wirkung von Hexenal = test: Influence on the effect of Hexenal; type: in vivo, Mäusen; details: mice
[2] = system: Calciumchlorid-Arrhythmie-Modells; test: Calcium chloride arrhythmia model (250 mg/kg): ventricular fibrillation, survival; type: in vivo, Ratten; details: rats, calcium chloride 250 mg/kg
From the text: (§1) Die antiarrhythmische Wirkung der erfindungsgemäßen Verbindungen wurde in zwei Versuchsserien untersucht, und zwar an isolierten Präparaten des rechten Vorhofs von Kaninchen und mit Hilfe des Calciumchlorid-Arrhythmie-Modells an Ratten. In den Versuchen an den isolierten Präparaten des rechten Vorhofs wurden mit Hilfe von Mikroelektroden die Dauer des AP sowie der Refraktärzeit (R) und die maximale Hemmung (e) und der Parameter (e/R) untersucht, durch den die Anfälligkeit des Myokards gegenüber der Entstehung von Arrhythmien gekennzeichnet wird. In den Versuchen an Ratten wurden diesen Calciumchlorid in einer Dosierung von 250 mg/kg injiziert. Registriert wurden das Vorliegen von Kammerflimmern und die Lebensdauer der Tiere. Sämtliche erfindungsgemäßen Verbindungen üben eine mäßige antiarrhythmische Wirkung aus. Sie steigern die Refraktärzeit des Muskels und des AP um 35 bis 145 % und verringern gleichzeitig die Anfälligkeit des Myokards, ausgedrückt durch den Parameter e/R um 10 bis 80 % (s. Tabelle 4). In bezug auf diese Wirkung waren die Salze der bicyclischen Basen wirksamer als Amyridin. Bezüglich des Vermögens, die Tiere vor Kammerflimmern und vor dem Tod nach Verabreichung von 250 mg/kg Calciumchlorid zu schützen, waren diese Verbindungen ebenfalls am stärksten wirksam. Bei Verwendung des Calciumchlorid-Arrhythmie-Modells waren viele erfindungsgemäßen Verbindungen stärker wirksam als das klassische Antiarrhythmikum Chinidin (s. M.D. Ma s kovskij, Lekarstvennye sredstva, Bd. 1, S. 401, Moskau, Medicina, 1984).

[3] = Side effects and CNS/behaviour: tremor (TD50), sedative and m-cholinomimetic effects; type: in vivo; details: for Verhältnis TD50 zu ED50: ED50 = dose blocking the effect of Skopolamin in 50 % of the animals (passive avoidance, mice); for TD50 (Tremor): toxic dose causing tremor in 50 % of the animals
From the text: Von Interesse ist der Einfluß der erfindungsgemäßen Verbindungen auf das ZNS und das Verhalten der Tiere.

[4] = Acute toxicity, single intraperitoneal injection, probit analysis (LD50); type: in vivo, Mäusen; details: mice, i.p.
From the text: Ihre akute Toxizität wurde an Mäusen (einmalige intraperitoneale Injektion) nach der Methode der Probit-Analyse nach Zichtfield, Wilcoxon, t949 untersucht. In Tabelle 2 sind die Parameter der akuten Toxizität (LDso) angegeben, die eine mäßige Toxizität der erfindungsgemäßen Verbindungen belegen.

Orientierungsaktivität = test: Influence on orientation activity; type: in vivo, Mäusen; details: mice
From the text: Von Interesse ist der Einfluß der erfindungsgemäßen Verbindungen auf das ZNS und das Verhalten der Tiere. Alle Verbindungen zeigen eine Kombination von stimulierenden und sedativen Eigenschaften und bei höheren Dosen auch eine m-cholinomimetische Wirkung, wobei Tremor, Speichelfluß und Diarrhoe ausgelöst werden.

Zahl der Krämpfe = test: Writhing test (intraperitoneal acetic acid); type: in vivo, Mäusen; details: male mice
From the text: Die analgetische Wirkung der erfindungsgemäßen Verbindungen wurde an männlichen Mäusen anhand des "Krampf"-Tests (Writhing-Tests) unter intraperitonealer Injizierung von Essigsäure und des Hot-plate-Tests untersucht. Im ersten Falle wurde die analgetische Wirkung der Verbindungen anhand der prozentualen Verringerung der Zahl der Krämpfe ermittelt. Beim zweiten Test wurde die Schwelle der Schmerzempfindlichkeit (Ablecken der Pfoten) bestimmt. Die stärkste analgetische Wirkung der erfindungsgemäßen Verbindungen zeigte sich beim "Krampf"-Test. Dabei übertrafen die Salze der bicyclischen Basen Amyridin, aber nicht alle erfindungsgemäßen Verbindungen waren schwächer als Morphin (s. Tabelle 4).

[5] = biological target: T1, Acetylcholinesterase menschlicher Erythrozyten (Homo sapiens, UniProt P22303); test: Acetylcholinesterase inhibition, spectrophotometric; type: biochemical; details: Acetylcholinesteraseinhibierung bei menschlichen Erythrozyten IK, (Mol), human erythrocyte enzyme
T1 construct: Acetylcholin-esteraseinhi-bierung bei menschlichen Erythrozyten; from tissue; host or cells: human erythrocytes
From the text: Untersucht wurden die Wirkmechanismen der erfindungsgemäßen Verbindungen: • 1. Die Wirkung auf Acetylcholinesterase menschlicher Erythrozyten auf spektrofotometrischem Wege. • 2.

[6] = system: isolierten Präparaten des rechten Vorhofs von Kaninchen; test: Antiarrhythmic effect on isolated right atrium preparations (microelectrodes: AP duration, refractory period R, e/R); details: isolated right atrium of rabbit, microelectrodes
From the text: as §1

[7] = system: durch Skopolamin hervorgerufene Amnesie; test: Dark avoidance assay (passive avoidance), scopolamine-induced amnesia; type: in vivo, Mäusen; details: mice, compound s.c. 5 min before learning, Skopolamin i.p. 30 min before
Protocol: Die Mäuse wurden dabei in den hellen Abschnitt der Kammer gegeben, wonach die Latenzzeit für den Übertritt in die dunkle Kammer, in der die Tiere einem Stromschlag von 0,5 mA ausgesetzt waren, registriert wurde. Danach erhöhte sich die Latenzzeit für den Übertritt in den dunklen Abschnitt und verringerte sich die Aufenthaltsdauer. 30 Minuten vor dem Versuch wurden den Mäusen i.p. […] Gedächtnisstörungen hervorrufendes Skopolamin als Cholinblocker injiziert. Die erfindungsgemäßen Verbindungen wurden s.c. 5 Minuten vor dem Lernvorgang injiziert. Das Skopolamin verkürzt die Latenzzeit für den Übertritt in die dunkle Kammer, die erfindungsgemäßen Verbindungen stellen jedoch die Latenzzeitwerte wie bei der Kontrollgruppe wieder her oder bedingen ein geringfügiges Überschreiten dieser Werte (siehe Tabelle 2). Gleichzeitig wird die Aufenthaltsdauer der Tiere im dunklen Abschnitt der Kammer auf 36 bis 45 Hundertstel des Ausgangswerts verringert.

Samenleiter der Ratte = test: Contractile activity of smooth muscle: rat vas deferens; details: Rattus norvegicus, read-out: Adrenalin 1.10^-6: Amplitude, % bezogen auf d.Kontrolle, Samenleiter der Ratte; Konzentration 1.10^-4 Mol; n = 9
From the text: (§2) In Versuchen an glattmpskulären Organen (Uterus, Samenleiter der Ratte und Krummdarm des Meerschweinchens) wurden die Wirkung der erfindungsgemäßen Verbindungen auf die kontraktile Aktivität der glatten Muskeln und ihre Reaktionen auf den Einfluß von Acetylcholin, Serotonin, Adrenalin und KCI als Agonisten untersucht. Mit Hilfe eines Schreibers wurden die Amplitude und die Dauer der Kontraktion der glatten Muskeln unter Verwendung eines Geräts vom Typ Mechanstron-untersucht.

Uterus der Ratte = test: Contractile activity of smooth muscle: rat uterus; details: Rattus norvegicus, read-out: Serotonin 1.10^-6 (Mol): Amplitude, % bezogen auf die Kontrolle, Uterus der Ratte; Konzentration 1.10^-4 Mol; n = 9
From the text: as §2

T1 sequence (P22303 other isoform, or with tags, fused parts or gaps): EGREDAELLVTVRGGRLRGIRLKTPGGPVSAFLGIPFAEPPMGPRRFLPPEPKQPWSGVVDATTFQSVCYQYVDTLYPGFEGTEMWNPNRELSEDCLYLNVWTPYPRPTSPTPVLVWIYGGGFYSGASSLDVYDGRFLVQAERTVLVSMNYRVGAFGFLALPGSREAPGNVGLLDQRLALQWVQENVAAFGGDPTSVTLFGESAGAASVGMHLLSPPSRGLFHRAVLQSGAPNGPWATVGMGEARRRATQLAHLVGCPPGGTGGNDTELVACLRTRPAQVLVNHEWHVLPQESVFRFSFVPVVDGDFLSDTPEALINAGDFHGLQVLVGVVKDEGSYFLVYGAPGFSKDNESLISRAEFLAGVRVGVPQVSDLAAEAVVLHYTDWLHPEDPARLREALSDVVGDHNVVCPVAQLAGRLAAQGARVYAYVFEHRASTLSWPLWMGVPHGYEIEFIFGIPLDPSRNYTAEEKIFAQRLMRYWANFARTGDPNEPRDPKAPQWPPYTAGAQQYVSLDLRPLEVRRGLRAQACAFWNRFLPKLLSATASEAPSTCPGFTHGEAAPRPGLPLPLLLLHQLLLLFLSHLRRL

| SMILES | Stimulierung der Nerven-Muskelübertragung, in % der Amplitude: EPP [1] [%] | Stimulierung der Nerven-Muskelübertragung, in % der Amplitude: minEPP [1] [%] | Änderung der Dauer der Seitenlage, in %: Hexenal 60 mg/kg (Wirkung von Hexenal) | Antiarrhythmische Wirkung: Verlängerung d. Lebensdauer von Ratten an Hand des CaCl2-Arrhythmie-Modells, in % [2] [%] | Verhältnis TD50 zu ED50 [3] | TD50 (Tremor) [3] [mg/kg] | LD50 [4] [mg/kg] | Änderung der Orientierungsaktivität, in % (Orientierungsaktivität) [%] | Analgetische Wirkung: Abnahme d. Zahl der "Krämpfe" bei Mäusen, in % (Zahl der Krämpfe) [%] | Ki [5] [nM] | Antiarrhythmische Wirkung: Verlängerung d. Refraktärzeit (R), in % [6] [%] | Einfluß auf das Gedächtnis: Zahl der Tiere in %, bei denen die Skopolaminwirkung aufgehoben wurde [7] [%] | activity at 100 µM (Samenleiter der Ratte) [%] | activity at 100 µM (Uterus der Ratte) [%] |
| --- | --- | --- | --- | --- | --- | --- | --- | --- | --- | --- | --- | --- | --- | --- |
| Cc1nc2c(c(N)c1C)CCC2 [Verbindung 16] | 42 | 78 | +22% | 70 | 6,6 | 10 | 21 | -10 | 50 | 580 | 80 | 75 | – | – |
| Cc1nc2c(c(N)c1C)CCC2 [Verbindung 10] | 38 | 79 | 0% | 180 | 7,5 | 6 | 15 | 0 | 60 | 123 | 120 | 80 | 160 | 160 |
| Cc1nc2c(c(N)c1C)CCC2 [Verbindung 3] | 55 | 110 | 0% | 190 | 20 | 7 | 17 | -8 | 90 | 180 | 115 | 80 | – | – |
| Cc1nc2c(c(N)c1C)CCC2 [Verbindung 12, 4-Amino-2,3-dimethyl-6,7-dihydro-5H-1-pyrindinfumarat] | 32 | 70 | +30% | 130 | 8 | 7 | 15 | -15 | 90 | 520 | 110 | 50 | – | – |
